Laboratory results as given in PubChem BioAssay AID1249 (Columbia University Molecular Screening Center, 2008).
Calls of active or inactive are those of the source. How the calls were made is not given here.

Assay: cellular cytoskeleton assembly phenotype modulators – imaging, high-content imaging, retest and dose response, confirmation (AID 1249);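 further: compound exposure lasted 24 h before fixation; plate controls were untreated cells for no effect and reference compound treated cells for full effect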
Conditions: cell-based imaging, cytoskeleton assembly phenotype, high content; at 2 µM; stronger effect = higher value

SMILES | inhibition
CC1(C)CC(=O)c2cc(OCC(=O)NCCCN3CCN(c4ccc(F)cc4)CC3)ccc2O1 | 8.9% (inactive)
Cc1ccc2nc(SCC(=O)Nc3cc(C(F)(F)F)ccc3N3CCOCC3)[nH]c2c1 | -6.4% (inactive)
CC(NC(=O)COC(=O)Cc1ccsc1)C1CC2CCC1C2 (stereo not given) | -7.6% (inactive)
COc1ccc(S(=O)(=O)Nc2nc3n(n2)C(c2ccc(Cl)cc2)CC(=O)N3)cc1 (stereo not given) | 4.9% (inactive)
Cc1ccc(S(=O)(=O)Nc2cc(C(=O)NCCN3CCCC3)ccc2N2CCCCC2)cc1 | -7.7% (inactive)
CCc1nnc(NC(=O)C2c3ccccc3Oc3ccccc32)s1 | 2.3% (inactive)
CCc1ccc(-c2nc(CN3CCC(C(=O)NCc4ccco4)CC3)c(C)o2)cc1 | 9.2% (inactive)
O=c1c2ccccc2nnn1CSc1ncnc2ccccc12 | -4% (inactive)
Cc1ccc2[nH]c3c(c2c1)CCC3=O | -8.6% (inactive)
C(=N\Nc1nc2ccccc2s1)/c1cccs1 | -5.8% (inactive)
Cc1c(C(=O)N2CCN(c3ccccc3F)CC2)sc2ncn(CC(=O)N3CCOCC3)c(=O)c12 | -3.2% (inactive)
O=C(Nc1ccc(Oc2ccccc2)cc1)C1CCCN(c2ncccn2)C1 (stereo not given) | 11.6% (inactive)
Cc1ccccc1CN1C(=O)C2(OCCCO2)c2ccccc21 | 3.7% (inactive)
CCOC(=O)Cc1cc(-c2ccc(O)cc2)nc2ccc3ccccc3c12 | -11.7% (inactive)
COc1ccc(C(c2sc3ncnn3c2O)N2CC(C)OC(C)C2)cc1OC (stereo not given) | 5% (inactive)
C=CC(=O)Nc1ccc(Br)cc1 | -1.2% (inactive)
Cc1nccn1-c1ccc(C(F)(F)F)cc1NC=O | -12.8% (inactive)
CCOC(=O)C1=C(CSc2nc3c(cc2C#N)CN(C)CC3)OC(N)=C(C#N)C1c1ccccc1 (stereo not given) | 1.4% (inactive)
O=c1c2c3c(sc2nc2n1CCC2)CCC3 | -14.6% (inactive)
O=C(COC(=O)C1(c2ccccc2F)CCCC1)NC1CCS(=O)(=O)C1 (stereo not given) | -1% (inactive)
CCn1c(SCC(=O)N2CCN(c3cccc(Cl)c3)CC2)nc2ccccc2c1=O | -3.6% (inactive)
NC(=S)N/N=C/c1ccc(-c2ccc(Cl)c(Cl)c2)o1 | -6.9% (inactive)
O=[N+]([O-])c1ccc(O)c(/C=N/Nc2ccc(Cl)nn2)c1 | -6.8% (inactive)
CCOC(=O)Cc1csc(SCC(=O)/C(C#N)=C(\C)N)n1 | -9.5% (inactive)
Cc1nc2ccccc2n1CCCOc1ccccc1 | 1% (inactive)

SMILES | inhibition
Cc1ncc(CO)c2cc(C(N)=O)c(=Nc3ccccc3)oc12 | -1.3% (inactive)
O=C1Nc2ccc(S(=O)(=O)N3CCOCC3)c3cccc1c23 | 0.5% (inactive)
Cc1cccc(N=C2NC(=O)CS2)c1C | 7% (inactive)
CC(=O)NC1CC2CCCC(C1)N2 (stereo not given) | -18.6% (inactive)
O=C(Nc1ccccc1)N1CCC(c2ccccc2)C1 (stereo not given) | -9.2% (inactive)
CCOc1ccc2[nH]c(C)c(CN3CCOCC3)c(=O)c2c1 | -4.5% (inactive)
O=C1CCCc2c1[nH]c1ccc(Cl)cc21 | -17.2% (inactive)
O=C(N/N=C/c1ccncc1)c1ccccc1 | 1.1% (inactive)
Cc1ccc(-c2cc(C(=O)NCc3ccccn3)no2)cc1 | 3.6% (inactive)
CS(=O)(=O)N(CC(=O)NCc1ccccc1Cl)Cc1ccccc1 | 0% (inactive)
O=C(c1ccc([N+](=O)[O-])cc1)N(Cc1ccc(Cl)cc1)N1C(=O)CCCC1=O | -0.3% (inactive)
Cc1nn(S(=O)(=O)c2ccccc2)c(C)c1Sc1ccc([N+](=O)[O-])cc1 | 2.5% (inactive)
S=c1[nH]nc(COc2ccc3c(c2)OCO3)n1-c1ccccc1 | 6.4% (inactive)
Cc1nonc1NC(=O)CSc1nc(C2CCCCC2)nc2ccccc12 | -6.5% (inactive)
COc1ccc(-c2nnc(SCC(=O)N3CCCc4ccccc43)o2)cc1OC | -16.4% (inactive)
CCN1C(=O)c2cccc3c(S(=O)(=O)NCc4ccccn4)ccc1c23 | -20.8% (inactive)
CN(CC(=O)NCc1ccncc1)S(=O)(=O)c1ccc(F)cc1 | 2.2% (inactive)
C=CCOc1c2ccc(C(=O)NCc3ccccc3OC)cc2nn1C | -6.1% (inactive)
CCOC(=O)C1C(=O)NC(N2CCCCC2)=NC1c1ccco1 (stereo not given) | -0.9% (inactive)
O=C(NC(NC1CCS(=O)(=O)C1)C(=O)c1cccs1)c1ccccc1 (stereo not given) | 6.8% (inactive)
N#Cc1c(N)nc(SCC(=O)NCc2ccc3c(c2)OCO3)c(C#N)c1-c1cccs1 | 0.2% (inactive)
Cc1ccc(C(=O)NCCCn2ccnc2)cn1 | 1.3% (inactive)
CCC(C)[C@@H](NC(=O)OC(C)(C)C)c1nnc(S(=O)(=O)Cc2cccc(C)c2)o1 (stereo not given in full) | 1.2% (inactive)
O=C(COC(=O)c1ccccc1C(=O)c1ccc(Cl)c([N+](=O)[O-])c1)NC1CCCCCC1 | -8.3% (inactive)
COc1ccccc1-c1cc(C(F)(F)F)nc(S(=O)(=O)CCCC(=O)N2CCCCC2C)n1 (stereo not given) | 7.4% (inactive)

SMILES | inhibition
Cn1cccc1C(=O)OCC(=O)Nc1cc(C(C)(C)C)nn1-c1ccccc1 | -17.7% (inactive)
CSC1=NCCN1C(=O)Cc1ccc(Cl)cc1 | 3% (inactive)
COc1ccc(C(C)(C)C)cc1S(=O)(=O)N1CCN(C)CC1 | -1.6% (inactive)
Cc1ccc(-c2nn(C(C)(C)C)c3ncnc(N)c23)cc1 | -7.8% (inactive)
CC(N)Cc1ccccc1Sc1ccc(O)cc1 (stereo not given) | 5.2% (inactive)
Cc1ccc(S(=O)(=O)N(CC(=O)NCc2ccco2)Cc2ccc(F)cc2)cc1 | -16.6% (inactive)
CSc1nnc2n(-c3ccccc3)c(=O)c3c4c(sc3n12)CCC4 | 8.1% (inactive)
CCCc1nnc(SCC(=O)O)n1/N=C/c1ccc2c(c1)OCO2 | -4.9% (inactive)
COc1ccc(OC)c(NS(=O)(=O)c2ccc(N3CCCC3=O)cc2)c1 | -3.6% (inactive)
O=C(CN1CCN(c2nc(-c3ccc(F)cc3)cs2)CC1)Nc1ccc2c(c1)OCO2 | -7.5% (inactive)
O=C(O)c1ccc(CNCc2ccccc2Cl)cc1 | 21.6% (inactive)
Cc1cc(NC(=O)NC(=O)c2cccc(OC(F)(F)C(F)F)c2)n[nH]1 | -2.9% (inactive)
CCOc1ccc(C(=O)C(c2ccccc2)N2CCOCC2)cc1 (stereo not given) | 4.3% (inactive)
CC/C(=N\NC(=O)CNC(=O)/C=C/c1ccco1)c1ccccc1 | -9.3% (inactive)
Cc1ccc(S(=O)(=O)Cn2nnnc2C(C(C)C)N2CCN(c3nc4ccccc4s3)CC2)cc1 (stereo not given) | 4.2% (inactive)
CCOC(=O)c1ccc(NS(=O)C23CC4CC(CC(C4)C2)C3)cc1 (stereo not given) | -10.9% (inactive)
O=C(c1cc(-c2ccncc2)nc2ccc(Br)cc12)N1CCN(c2ccccn2)CC1 | -1% (inactive)
COc1ccc(O)c(C=Nc2cc(C)on2)c1 | -0.2% (inactive)
CCOC(=O)c1ccc(-n2c(=S)sc3c(=O)[nH]c(C)nc32)cc1 | 3.6% (inactive)
Cc1ccc(-c2nc(NC(=O)c3nn(C)cc3[N+](=O)[O-])sc2C)cc1 | 5.1% (inactive)
CC1=C(C(=O)OCCOC(C)C)C(c2cccnc2)C2=C(CCCC2=O)N1 (stereo not given) | -18.2% (inactive)
CCOC(=O)c1c(C)c(C(=O)O)n(C)c1C | -14.7% (inactive)
Cc1ccccc1CS(=O)(=O)c1nnc([C@H](Cc2ccccc2)NC(=O)OC(C)(C)C)o1 | 0.1% (inactive)
O=C(CN1CCSCC1)N1CCc2[nH]c3ccc(Br)cc3c2C1 | 5.8% (inactive)
CC[C@@H](C)[C@H](NC(=O)OC(C)(C)C)c1nnc(S(=O)(=O)Cc2cc(C)ccc2C)o1 | -2.4% (inactive)

SMILES | inhibition
C=C(C)c1cccc(C(C)(C)NC(=O)Nc2ncccn2)c1 | 1.8% (inactive)
CCN1C(=O)CSC1=NC12CC3CC(CC(C3)C1)C2 | -5.5% (inactive)
CC(C)(CO)NC(=O)CCCOc1ccc(Cl)cc1Cl | -0.1% (inactive)
Cc1ccc(C(=O)CSc2nsc(C)c2C#N)cc1 | -11.1% (inactive)
CC(C)CCN1CC(C(=O)NCCC2=CCCCC2)CC1=O (stereo not given) | -12.9% (inactive)
Cc1cc(NC(=O)C(=O)NCCN2CCN(C(=O)c3cccs3)CC2)ccc1Br | 0.6% (inactive)
O=C(Nc1nccs1)c1cccc(N2C(=O)c3cccc4c([N+](=O)[O-])ccc(c34)C2=O)c1 | -8.2% (inactive)
Cc1cccc(CS(=O)(=O)c2nnc([C@H](Cc3ccccc3)NC(=O)OC(C)(C)C)o2)c1 | -5% (inactive)
CCC(=O)c1c[nH]c(C(=O)NCC2CCCO2)c1 (stereo not given) | -0.5% (inactive)
O=C(Nc1ncc2c(n1)CC(c1ccco1)CC2=O)c1ccc(Cl)cc1 (stereo not given) | -4.9% (inactive)
O=C(CS(=O)c1ccc(C(F)(F)F)cc1[N+](=O)[O-])Oc1ccc(Cl)cc1 (stereo not given) | 5.2% (inactive)
COc1ccccc1-c1cn(S(=O)(=O)c2ccc(C)cc2)nc1N | 7.9% (inactive)
Nc1c(C(=O)NC2CCCC2)c2nc3ccccc3nc2n1N | -22.3% (inactive)
Cc1ccc(S(=O)(=O)NC(CC(=O)O)c2ccco2)cc1 (stereo not given) | 8.2% (inactive)
C#CC(=O)N(c1cccc(OC)c1)C(C(=O)NC1CCCC1)c1cccs1 (stereo not given) | -5.8% (inactive)
O=C(NC1CC1)c1ccc(S(=O)(=O)NCC2CCCCC2)cc1 | -2.7% (inactive)
Fc1ccc(-n2[nH]nnc2=S)cc1N1CCCC1 | 10.6% (inactive)
O=C(NC1CCCCC1)N(CCN1CCOCC1)Cc1cc2cc3c(cc2[nH]c1=O)OCCO3 | 32.9% (inactive)
Cc1ccc(C)c(NC(=O)c2nnn(Cc3ccccc3)c2N)c1 | -0.1% (inactive)
CCNc1nc(NCC)n2c(SCc3ccc(F)cc3)nnc2n1 | 4.8% (inactive)
CCn1c(=O)c2c(n3cnnc13)-c1ccccc1CC21CCCCC1 | 5.6% (inactive)
Cc1ccc(NS(=O)(=O)c2cc(C(=O)NCCSC3CCCCC3)ccc2C)cc1 | -1.3% (inactive)
OCCNCC(O)Cn1ccc2ccccc21 (stereo not given) | -2.9% (inactive)
Cc1ccc(S(=O)(=O)c2cc(C#N)c(=O)[nH]c2N)cc1 | 9.1% (inactive)
CC(C)(C)c1ccc(C(=O)N/N=C/c2cccc(Cl)c2)cc1 | 7.3% (inactive)
